Measured values from patent US9278968B2, “Imidazopyridine compounds” (ASTELLAS PHARMA INC., priority 2012, dated 2016).

molecular target: human purified sGC (heterodimer of sGCα1 and sGCβ1) (Homo sapiens (Human), UniProt Q02108+Q02153); test: sGC activation test (cGMP produced, HTRF); format: biochemical; details: maximum activity of Preparation Example 200 compound (maximum 100 μM) taken as 100%; with SNP; read-out: EC50 (concentration giving 50% of maximum activity)
Protocol: The activity of sGC was evaluated by measuring the amount of cGMP produced by human purified sGC.
Using an sGCα 1 gene (NCBI accession No. BC028384.2) and an sGCβ1 gene (NCBI accession No. BC047620.1), an N-terminal FLAG tag-fused sGCα1 and an sGCβ1 expression baculovirus were prepared. These viruses were transfected into insect cells Sf9 (Cat. No. 11496-015, Gibco) to express a protein. From the cell lysates of the insect cells, heterodimers of the N-terminal FLAG tag-fused sGCα1 and sGCβ1 were purified with an M2 Affinity Gel (Sigma-Aldrich, Inc.) to obtain a human sGC.
An Example compound was dissolved in DMSO and diluted 20-fold with ultrapure water. 2 μL of the diluted Example compound solution (maximum concentration of 100 μM), 2 μL of a substrate solution [0.5 μM triethanolamine buffer solution, 0.03 μM dithiothreitol, 0.01 μM GTP, 0.04 μM MgCl2, and 0.03 μM sodium nitroprusside (SNP)], and 6 μL of a human enzyme suspension were added to 384-well plates (manufactured by Greiner Bio-One), and incubated at room temperature for one hour. The measurement of the amount of cGMP was carried out, using an HTRF reagent (Cisbio).
The sGC activation action of the Example compound was calculated as an Example compound concentration which gives 50% of a maximum activity (EC50), in which the maximum activity by the addition of a compound shown in Preparation Example 200, 8-(cyclohexylmethoxy)-N-[(1R)-2-hydroxy-1-phenylethyl]-2-methylimidazo[1,2-a]pyridine-3-carboxamide hydrochloride (maximum 100 μM), is taken as 100%. Further, the maximum activity of sGC with the addition of 8-(cyclohexylmethoxy)-N-[(1R)-2-hydroxy-1-phenylethyl]-2-methylimidazo[1,2-a]pyridine-3-carboxamide hydrochloride is 10-fold or more relative to the sGC activation without the addition of the compound, and it is recognized that the compound has a good sGC activating action. […] The test results of some Example compounds that are the compounds of the formula (I) of the present invention are shown below. Further, in Tables, Ex. represents Example number.

human purified sGC (heterodimer of sGCα1 and sGCβ1), sequence (Q02108 whole entry): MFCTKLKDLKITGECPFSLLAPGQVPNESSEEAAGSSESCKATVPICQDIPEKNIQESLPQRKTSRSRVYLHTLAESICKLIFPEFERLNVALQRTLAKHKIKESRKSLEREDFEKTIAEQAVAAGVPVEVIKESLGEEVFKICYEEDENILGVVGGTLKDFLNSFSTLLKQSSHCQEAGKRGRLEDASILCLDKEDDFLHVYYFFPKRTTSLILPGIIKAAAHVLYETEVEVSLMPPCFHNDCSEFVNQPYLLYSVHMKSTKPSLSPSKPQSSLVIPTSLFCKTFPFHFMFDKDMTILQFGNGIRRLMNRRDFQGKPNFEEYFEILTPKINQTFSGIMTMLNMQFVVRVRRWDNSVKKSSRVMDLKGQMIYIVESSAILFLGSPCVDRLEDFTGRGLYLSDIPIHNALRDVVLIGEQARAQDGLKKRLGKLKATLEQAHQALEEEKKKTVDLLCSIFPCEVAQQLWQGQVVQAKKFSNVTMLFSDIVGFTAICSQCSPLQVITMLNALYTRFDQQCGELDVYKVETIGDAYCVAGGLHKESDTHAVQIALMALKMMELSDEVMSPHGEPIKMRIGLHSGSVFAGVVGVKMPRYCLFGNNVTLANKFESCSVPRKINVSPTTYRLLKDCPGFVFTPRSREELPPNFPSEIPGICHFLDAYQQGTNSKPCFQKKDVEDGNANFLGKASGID
human purified sGC (heterodimer of sGCα1 and sGCβ1), sequence (Q02153 whole entry): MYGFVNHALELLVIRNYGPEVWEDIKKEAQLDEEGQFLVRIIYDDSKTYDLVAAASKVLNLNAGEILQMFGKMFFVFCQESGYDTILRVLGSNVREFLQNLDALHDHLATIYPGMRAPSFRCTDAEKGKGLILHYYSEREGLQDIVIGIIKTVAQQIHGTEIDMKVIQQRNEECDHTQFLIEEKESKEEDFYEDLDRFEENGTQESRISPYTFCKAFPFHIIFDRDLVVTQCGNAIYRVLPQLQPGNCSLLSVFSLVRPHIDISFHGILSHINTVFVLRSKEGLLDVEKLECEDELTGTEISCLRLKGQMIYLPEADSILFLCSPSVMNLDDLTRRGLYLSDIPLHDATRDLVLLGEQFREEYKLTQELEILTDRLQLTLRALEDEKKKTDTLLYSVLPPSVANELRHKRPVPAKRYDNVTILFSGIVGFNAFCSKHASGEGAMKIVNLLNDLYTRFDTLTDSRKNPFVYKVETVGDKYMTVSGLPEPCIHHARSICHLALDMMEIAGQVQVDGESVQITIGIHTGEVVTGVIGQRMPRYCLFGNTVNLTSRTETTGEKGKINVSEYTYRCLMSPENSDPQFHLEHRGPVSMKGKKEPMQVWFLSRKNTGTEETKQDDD

Row | Structure (SMILES) | EC50 [µM]
1 | Cc1nc2c(OCc3c(F)cccc3F)cccn2c1C(=O)N[C@]1(c2ccccc2)CC[C@@H](O)[C@H]1O (racemic) [Example 27] | 12
2 | Cc1nc2c(OCc3c(F)cccc3F)cccn2c1C(=O)N[C@]1(c2ccccc2)CC[C@H](O)[C@H]1O (racemic) [Example 28] | 13
3 | Cc1nc2c(OCc3c(F)cccc3F)cccn2c1C(=O)NCc1cccnc1[C@@H](O)[C@@H](C)O (racemic) [Example 89] | 11
4 | Cc1nc2c(OCc3c(F)cccc3F)cccn2c1C(=O)NCc1ccncc1[C@@H](O)[C@@H](C)O (racemic) [Example 90] | 9.8
5 | Cc1nc2c(OCc3c(F)cccc3F)cccn2c1C(=O)N[C@@H](C)c1ccccc1[C@@H](O)CO (stereo in doubt) [Example 59] | 1.9
6 | Cc1nc2c(OCC3CCCCC3)cccn2c1C(=O)N[C@@](C)(CO)c1cccc(C(=O)O)c1 [Example 3, 3-[(2R)-2-({ [8-(cyclohexylmethoxy)-2-methylimidazo[1,2-a]pyridin-3-yl]carbonyl}amino)-1-hydroxypropan-2-yl]benzoic acid] | 0.72
7 | Cc1nc2c(OCc3c(F)cccc3F)cccn2c1C(=O)NC(C)(CO)c1ccc(CO)cc1 (centres unmarked) [Example 4, 8-[(2,6-difluorobenzyl)oxy]-N-{1-hydroxy-2-[4-(hydroxymethyl)phenyl]propan-2-yl}-2-methylimidazo[1,2-a]pyridine-3-carboxamide] | 1.4
8 | Cc1nc2c(OCc3c(F)cccc3F)cccn2c1C(=O)NCc1ccccc1C(O)CO (centres unmarked) [Example 5, 8-[(2,6-difluorobenzyl)oxy]-N-[2-(1,2-dihydroxyethyl)benzyl]-2-methylimidazo[1,2-a]pyridine-3-carboxamide] | 6.4
9 | Cc1nc2c(OCc3c(F)cccc3F)cccn2c1C(=O)N[C@@](C)(CO)c1cccc(C(N)=O)c1 [Example 12] | 0.78
10 | Cc1nc2c(OCC3CCCCC3)cccn2c1C(=O)N[C@@](C)(CO)c1cccc(C(N)=O)c1 [Example 13] | 0.84
11 | Cc1nc2c(OCc3c(F)cccc3F)cccn2c1C(=O)NC(C)(CO)c1ncccn1 (centres unmarked) [Example 14] | 4.4
12 | Cc1nc2c(OCc3ccccc3F)cccn2c1C(=O)N[C@@](C)(CO)c1cccc(CO)c1 [Example 15] | 2.8
13 | Cc1cnc([C@H](CO)NC(=O)c2c(C)nc3c(OCc4c(F)cccc4F)cccn23)s1 [Example 16] | 2.1
14 | Cc1nc2c(OCc3c(F)cccc3F)cccn2c1C(=O)N[C@@](C)(CO)c1nc(CO)cs1 [Example 21] | 4
15 | Cc1nc2c(OCc3ncccc3F)cccn2c1C(=O)N[C@@](C)(CO)c1ccccc1F [Example 23] | 9.8
16 | Cc1ncc([C@H](CO)NC(=O)c2c(C)nc3c(OCc4c(F)cccc4F)cccn23)s1 [Example 24] | 3.6
17 | Cc1nc2c(OCc3c(F)cccc3F)cccn2c1C(=O)N[C@@H](CO)c1nnn(C)n1 [Example 26] | 24
18 | Cc1nc2c(OCC3CCCCC3)cccn2c1C(=O)N[C@@H](CO)c1nnnn1C [Example 29] | 17
19 | Cc1nc2c(OCc3c(F)cccc3F)cccn2c1C(=O)NCc1ccccc1[C@H](O)[C@H](C)O [Example 30] | 5.6
20 | Cc1nc2c(OCc3c(F)cccc3F)cccn2c1C(=O)NCc1ccccc1[C@@H](O)[C@H](C)O [Example 32] | 8.2
21 | Cc1nc2c(OCc3c(F)cccc3F)cccn2c1C(=O)NCc1ccccc1[C@H](O)[C@@H](C)O [Example 33] | 7.4

Row | Structure (SMILES) | EC50 [µM]
22 | Cc1nc2c(OCC3CCCCC3)cccn2c1C(=O)N[C@@H](CO)c1nnn(C)n1 [Example 34] | 11
23 | Cc1nnc([C@H](CO)NC(=O)c2c(C)nc3c(OCc4c(F)cccc4F)cccn23)o1 [Example 42] | 33
24 | Cc1nnc([C@H](CO)NC(=O)c2c(C)nc3c(OCC4CCCCC4)cccn23)o1 [Example 43] | 14
25 | CCc1nnc([C@H](CO)NC(=O)c2c(C)nc3c(OCc4c(F)cccc4F)cccn23)o1 [Example 44] | 16
26 | CCc1nnc([C@H](CO)NC(=O)c2c(C)nc3c(OCC4CCCCC4)cccn23)o1 [Example 45] | 9.1
27 | Cc1nc2c(OCc3c(F)cccc3F)cccn2c1C(=O)N[C@@H](CO)c1nnc(C2CC2)o1 [Example 46] | 20
28 | Cc1nc2c(OCC3CCCCC3)cccn2c1C(=O)N[C@@H](CO)c1nnc(C2CC2)o1 [Example 47] | 13
29 | Cc1nc2c(OCc3c(F)cccc3F)cccn2c1C(=O)NC(C)(CO)c1cncnc1 (centres unmarked) [Example 48] | 2.7
30 | Cc1nc2c(OCc3c(F)cccc3F)cccn2c1C(=O)NC(CO)c1cnn(C)c1 (centres unmarked) [Example 49] | 25
31 | Cc1nc2c(OCc3c(F)cccc3F)cccn2c1C(=O)NC(C)(CO)c1cnn(C)c1 (centres unmarked) [Example 50] | 7.9
32 | Cc1nc2c(OCc3ccccc3F)cccn2c1C(=O)NC(C)(CO)c1ccc(CO)cc1 (centres unmarked) [Example 51] | 12
33 | Cc1nc2c(OCc3c(F)cccc3F)cccn2c1C(=O)NC(CO)(CO)c1cccc(CO)c1 [Example 53] | 1.7
34 | Cc1nc2c(OCc3c(F)cccc3F)cccn2c1C(=O)NC(CO)(CO)c1cccc(F)c1 [Example 55] | 2
35 | Cc1ccc(C(CO)(CO)NC(=O)c2c(C)nc3c(OCc4c(F)cccc4F)cccn23)nc1 [Example 56] | 8.5
36 | Cc1nc2c(OCc3c(F)cccc3F)cccn2c1C(=O)NC(CO)(CO)c1ccc(F)cn1 [Example 57] | 3.7
37 | COc1ccc(C(CO)(CO)NC(=O)c2c(C)nc3c(OCc4c(F)cccc4F)cccn23)cn1 [Example 58] | 3.3
38 | Cc1cnc(C(CO)(CO)NC(=O)c2c(C)nc3c(OCc4c(F)cccc4F)cccn23)o1 [Example 60] | 12
39 | Cc1nc2c(OCc3cccc(F)c3F)cccn2c1C(=O)NC(CO)(CO)c1ccc(F)cc1 [Example 61] | 6.4
40 | Cc1ccnc(C(CO)(CO)NC(=O)c2c(C)nc3c(OCc4c(F)cccc4F)cccn23)c1 [Example 62] | 6.5
41 | Cc1nc2c(OCc3c(F)cccc3F)cccn2c1C(=O)NC(CO)(CO)c1nnn(C)n1 [Example 64] | 30
42 | Cc1nc2c(OCC3CCCCC3)cccn2c1C(=O)NC(CO)(CO)c1nnn(C)n1 [Example 66] | 16

Row | Structure (SMILES) | EC50 [µM]
43 | Cc1nc2c(OCC3CCCCC3)cccn2c1C(=O)N[C@]1(c2ccccn2)C[C@@H](O)[C@@H](O)C1 [Example 68] | 14
44 | Cc1nc2c(OCc3c(F)cccc3F)cccn2c1C(=O)NC(CO)(CO)c1cnn(C)c1 [Example 71] | 21
45 | Cc1nc2c(OCC3CCCCC3)cccn2c1C(=O)NC(C)(CO)c1nnn(C)n1 (centres unmarked) [Example 73a] | 6.4
46 | COCCn1nnc(C(C)(CO)NC(=O)c2c(C)nc3c(OCc4c(F)cccc4F)cccn23)n1 (centres unmarked) [Example 74] | 12
47 | Cc1nc2c(OCc3c(F)cccc3F)cccn2c1C(=O)NC(C)(CO)c1nnn(CCO)n1 (centres unmarked) [Example 75] | 9.1
48 | Cc1ncc(C(CO)(CO)NC(=O)c2c(C)nc3c(OCc4c(F)cccc4F)cccn23)s1 [Example 78] | 5.1
49 | Cc1nc2c(OCc3c(F)cccc3F)cccn2c1C(=O)NC(C)(C)c1cccc(C(N)=O)c1 [Example 80] | 7.1
50 | Cc1nc2c(OCc3cccc(F)c3F)cccn2c1C(=O)NC(C)(CO)c1nnn(C)n1 (centres unmarked) [Example 82] | 21
51 | Cc1nnc(C(C)(CO)NC(=O)c2c(C)nc3c(OCC4CCCCC4)cccn23)o1 (centres unmarked) [Example 84] | 7.1
52 | [C-]#[N+]c1cccc([C@](C)(CO)NC(=O)c2c(C)nc3c(OCC4CCCCC4)cccn23)c1 [Example 85] | 2.9
53 | CCc1nnc(C(C)(CO)NC(=O)c2c(C)nc3c(OCC4CCCCC4)cccn23)o1 (centres unmarked) [Example 86] | 5.6
54 | Cc1nc2c(OCc3c(F)cccc3F)cccn2c1C(=O)NC(C)(CO)c1nnc(C2CC2)o1 (centres unmarked) [Example 87] | 5.9
55 | Cc1nc2c(OCC3CCCCC3)cccn2c1C(=O)NC(C)(CO)c1nnc(C2CC2)o1 (centres unmarked) [Example 88] | 5.3
56 | Cc1nc2c(OCC3CCCCC3)cccn2c1C(=O)NC(C)(CO)c1nnc(C(F)(F)F)o1 (centres unmarked) [Example 92] | 1.4
57 | Cc1nc2c(OCc3c(F)cccc3F)cccn2c1C(=O)NC(C)(CO)c1cnn(C)c1C (centres unmarked) [Example 93] | 21
58 | Cc1nn(C)cc1C(C)(CO)NC(=O)c1c(C)nc2c(OCc3c(F)cccc3F)cccn12 (centres unmarked) [Example 94] | 14
59 | Cc1nc2c(OCc3c(F)cccc3F)cccn2c1C(=O)NC(CO)(CO)c1ccn(C)n1 [Example 95] | 18
60 | Cc1nc2c(OCC3CCCCC3)cccn2c1C(=O)NC(CO)(CO)c1nnn(C(F)F)n1 [Example 97] | 3.5
61 | Cc1nnc(C(CO)(CO)NC(=O)c2c(C)nc3c(OCC4CCCCC4)cccn23)o1 [Example 98] | 24
62 | CCc1nnc(C(CO)(CO)NC(=O)c2c(C)nc3c(OCC4CCCCC4)cccn23)o1 [Example 99] | 17
